Measurements as given in ChEMBL document CHEMBL1158858, “(2,4-cis and trans)-gigantecinone and 4-deoxygigantecin, bioactive nonadjacent bis-tetrahydrofuran annonaceous acetogenins, from Goniothalamus giganteus” (J Nat Prod, 1997).
≈ marks a conversion by molar mass, not a printed value.

What was measured:
[1] = system: Artemia; assay: (§1) Toxicity to brine shrimp; format: organism-based; settings: in vivo
[2] = system: Aedes aegypti; assay: Insecticidal activity against yellow fever mosquito larvae by microtiter plate assay; format: functional
[3] = system: A549; assay: Cytotoxicity against human A549 cells after 7 days by MTT assay; format: functional; settings: for EC50: Homo sapiens, A549, 168 h, read-out: ED50 (the source's name)
[4] = system: MCF7; assay: Cytotoxicity against human MCF7 cells after 7 days by MTT assay; format: functional; settings: MCF7, 168 h, read-out: ED50 (the source's name)
[5] = system: HT-29; assay: Cytotoxicity against human HT29 cells after 7 days by MTT assay; format: functional; settings: HT-29, 168 h, read-out: ED50 (the source's name)
[6] = system: A498; assay: Cytotoxicity against human A498 cells after 7 days by MTT assay; format: functional; settings: A498, 168 h, read-out: ED50 (the source's name)
[7] = system: PC-3; assay: Cytotoxicity against human PC3 cells after 7 days by MTT assay; format: functional; settings: PC-3, 168 h, read-out: ED50 (the source's name)
[8] = system: MIA PaCa-2; assay: Cytotoxicity against human MIAPaCa2 cells after 7 days by MTT assay; format: functional; settings: MIA PaCa-2, 168 h, read-out: ED50 (the source's name)
[9] = as §1; format: organism-based; settings: artemia, in vivo

SMILES	LC50 [1]	LC50 [2]	EC50 [3]	EC50 [4]	EC50 [5]	EC50 [6]	EC50 [7]	EC50 [8]	LC50 [9]	ED50 [3]
CCCCCCCCCCCC[C@@H](O)[C@H]1CC[C@H]([C@H](O)CC[C@H](O)[C@@H]2CC[C@@H](CCCCCCCC3=C[C@H](C)OC3=O)O2)O1	0.04 ppm	0.68 µg/mL (≈ 1.09 µM)	0.131 µg/mL (≈ 0.21 µM)	1 µg/mL (≈ 1.61 µM)	0.143 µg/mL (≈ 0.23 µM)	0.328 µg/mL (≈ 0.527 µM)	0.15 µg/mL (≈ 0.241 µM)	0.393 µg/mL (≈ 0.631 µM)	–	–
COc1cccc2c1C(=O)c1c(O)c3c(c(O)c1C2=O)C[C@@](O)(C(=O)CO)C[C@@H]3O[C@H]1C[C@H](N)[C@H](O)[C@H](C)O1 [DOXORUBICIN]	–	–	0.00393 µg/mL (≈ 0.00723 µM)	0.369 µg/mL (≈ 0.679 µM)	0.725 µg/mL (≈ 1.33 µM)	0.113 µg/mL (≈ 0.208 µM)	0.0146 µg/mL (≈ 0.0269 µM)	0.00142 µg/mL (≈ 0.00261 µM)	–	–
CCCCCCCCCCCC[C@@H](O)[C@H]1CC[C@H]([C@H]2CC[C@@H]([C@@H]3CC[C@@H](CCCCC[C@@H]4CC(CC(C)=O)C(=O)O4)O3)OCO2)O1 (mixture of isomers)	–	–	0.252 µg/mL	> 1 µg/mL	> 1 µg/mL	0.271 µg/mL	0.00306 µg/mL	> 1 µg/mL	–	–
CCCCCCCCCCCC[C@@H](O)[C@H]1CC[C@H]([C@H](O)CC[C@H](O)[C@@H]2CC[C@@H](CCCCC[C@@H]3CC(CC(C)=O)C(=O)O3)O2)O1 (some centres undefined)	3.27 ppm	0.27 µg/mL (≈ 0.423 µM)	0.214 µg/mL (≈ 0.335 µM)	> 1 µg/mL	> 1 µg/mL	0.212 µg/mL (≈ 0.332 µM)	0.00108 µg/mL (≈ 0.00169 µM)	> 1 µg/mL	–	–
CCCCCCCCCCCC[C@@H](O)[C@H]1CC[C@H]([C@H]2CC[C@@H]([C@@H]3CC[C@@H](CCCCCCCC4=C[C@H](C)OC4=O)O3)OCO2)O1	–	–	0.0382 µg/mL (≈ 0.0602 µM)	0.495 µg/mL (≈ 0.78 µM)	0.183 µg/mL (≈ 0.288 µM)	0.162 µg/mL (≈ 0.255 µM)	0.132 µg/mL (≈ 0.208 µM)	0.217 µg/mL (≈ 0.342 µM)	–	–
CCCCCCCCCCCC[C@@H](O)[C@H]1CC[C@H]([C@H](O)CC[C@H](O)[C@@H]2CC[C@@H](CCCCC[C@@H](O)CC3=C[C@H](C)OC3=O)O2)O1 [GIGANTECIN]	–	–	–	0.411 µg/mL (≈ 0.643 µM)	0.268 µg/mL (≈ 0.419 µM)	–	–	–	222 µg/mL (≈ 347 µM)	2.19 ×10⁻⁷ ug/ml
C=C(C)[C@H]1Cc2c(ccc3c2O[C@@H]2COc4cc(OC)c(OC)cc4[C@@H]2C3=O)O1 [ROTENONE]	–	0.75 µg/mL (≈ 1.9 µM)	–	–	–	–	–	–	–	–
